The values below come from patent US12371428B2 (Exelixis, Inc., priority 2019, dated 2025).

In experiment [1] the target is Human KDR (residues 790-1356) (Homo sapiens (Human), UniProt P35968). The experiment can be described thus: Human KDR kinase assay, HTRF KinEase (Example B-2). Format: biochemical. The following applies: protocol of Example B-2 (other compounds). Put shortly: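 Ten compound concentrations (3% DMSO final) were pre-plated, then KDR (790-1356) with biotinylated peptide in Mg/Mn/DTT buffer was added; ATP at Km (4.0 μM) started a 40 min room-temperature reaction. Detection used Eu-TK antibody and SA-XL665 in EDTA buffer; activity normalized to DMSO and reference inhibitor, IC50 by logistic fit.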
A general note: Time-resolved FRET reads energy transfer from a long-lived donor to a nearby acceptor.

Experiment [2] has as its target KDR (phospho-KDR, VEGF165-stimulated HUVEC cells) (Homo sapiens (Human), UniProt P35968). The experiment can be described thus: KDR autophosphorylation ELISA in HUVEC cells (Example G). Type of experiment: cell-based. The following applies: cellular activity; KDR autophosphorylation ELISA in HUVEC cells. Put shortly:
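First, endothelial cells were cultured a day, then kept without serum for another day. Next came 1 h with serially diluted compound, a brief 5 min VEGF165 stimulus (100 ng/mL), rapid lysis, and ELISA detection of receptor phosphorylation relative to stimulated and non-stimulated controls.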
Background: An ELISA detects its analyte on a solid surface through an enzyme-linked reagent.

For experiment [3], the target named is Mer (phospho-Mer, MERTK-transfected 293A cells) (Homo sapiens (Human), UniProt Q12866). Briefly: Mer autophosphorylation ELISA in transient transfected 293A cells (Example H). The following applies: cellular activity; Mer autophosphorylation ELISA in transient transfected 293A cells. Type of experiment: cell-based. In outline:
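MERTK-transfected 293A; 8-pt dose, 1 h, serum-free, 0.3% DMSO. Cold lysis with orthovanadate and protease/phosphatase inhibitors. Phospho-Mer by DuoSet IC ELISA vs phospho-Mer standard. IC50: 4-PL fit; DMSO = 100%, reference inhibitor = 0%.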

Experiment [4] addresses Human MET (residues 956-1390) (Homo sapiens (Human), UniProt P08581). The experiment can be described thus: Human Met kinase assay, HTRF KinEase (Example D-2). Type of experiment: biochemical. The following applies: protocol of Example D-2 (other compounds); read-out: c-Met IC50. In outline:
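HTRF KinEase assay on MET residues 956-1390 (0.1 ng/well) in buffer with 5 mM MgCl2, 1 mM DTT and 1 mM MnCl2, with biotinylated peptide substrate, ATP at Km, 10 compound concentrations and 3% DMSO final, run 40 min at room temperature. The […] signal was normalized to DMSO and to 1 μM reference compound, and IC50 came from a 4-parameter logistic fit.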

SMILES strings stand for the structures. Where only a bound is given, the exact number is not on record here.

Sequence of Mer (phospho-Mer, MERTK-transfected 293A cells) (Q12866 21-999): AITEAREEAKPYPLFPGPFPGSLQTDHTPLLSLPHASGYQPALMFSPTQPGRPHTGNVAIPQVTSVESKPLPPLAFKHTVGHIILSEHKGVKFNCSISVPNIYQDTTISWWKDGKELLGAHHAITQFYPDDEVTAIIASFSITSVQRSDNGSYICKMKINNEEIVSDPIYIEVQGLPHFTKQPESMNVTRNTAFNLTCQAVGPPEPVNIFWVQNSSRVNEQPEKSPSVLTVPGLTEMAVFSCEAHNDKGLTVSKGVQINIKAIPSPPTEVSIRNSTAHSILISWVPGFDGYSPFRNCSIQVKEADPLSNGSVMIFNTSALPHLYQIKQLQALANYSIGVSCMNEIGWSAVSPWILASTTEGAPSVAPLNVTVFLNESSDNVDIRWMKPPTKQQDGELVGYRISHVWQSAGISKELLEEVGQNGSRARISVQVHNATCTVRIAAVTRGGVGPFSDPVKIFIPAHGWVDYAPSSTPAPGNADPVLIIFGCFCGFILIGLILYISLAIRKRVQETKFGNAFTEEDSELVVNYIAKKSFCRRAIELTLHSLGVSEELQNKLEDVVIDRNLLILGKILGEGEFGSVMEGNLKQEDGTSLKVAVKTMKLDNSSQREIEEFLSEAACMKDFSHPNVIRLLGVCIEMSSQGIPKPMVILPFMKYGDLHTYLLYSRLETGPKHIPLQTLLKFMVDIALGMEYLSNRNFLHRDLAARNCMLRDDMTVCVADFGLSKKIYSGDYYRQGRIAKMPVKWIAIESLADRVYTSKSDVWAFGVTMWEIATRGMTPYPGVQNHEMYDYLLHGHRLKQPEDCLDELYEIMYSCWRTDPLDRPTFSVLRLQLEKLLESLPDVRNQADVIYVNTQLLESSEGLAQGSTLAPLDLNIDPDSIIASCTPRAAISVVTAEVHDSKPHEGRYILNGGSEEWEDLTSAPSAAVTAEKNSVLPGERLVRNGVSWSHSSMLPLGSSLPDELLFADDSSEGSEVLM
Sequence of Human MET (residues 956-1390) (P08581 956-1390): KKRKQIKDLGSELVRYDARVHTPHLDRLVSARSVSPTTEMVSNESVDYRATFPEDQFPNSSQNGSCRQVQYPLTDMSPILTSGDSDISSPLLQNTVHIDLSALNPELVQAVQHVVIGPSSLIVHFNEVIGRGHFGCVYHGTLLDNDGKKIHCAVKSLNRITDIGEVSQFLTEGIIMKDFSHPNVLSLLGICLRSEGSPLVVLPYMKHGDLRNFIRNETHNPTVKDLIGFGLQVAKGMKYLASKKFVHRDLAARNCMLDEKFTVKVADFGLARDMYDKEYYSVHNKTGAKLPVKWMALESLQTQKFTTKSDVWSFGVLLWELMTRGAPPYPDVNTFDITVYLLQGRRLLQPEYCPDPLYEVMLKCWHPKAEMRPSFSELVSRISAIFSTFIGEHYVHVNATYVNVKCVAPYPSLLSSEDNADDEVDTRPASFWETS
Sequence of KDR (phospho-KDR, VEGF165-stimulated HUVEC cells) (P35968 20-1356): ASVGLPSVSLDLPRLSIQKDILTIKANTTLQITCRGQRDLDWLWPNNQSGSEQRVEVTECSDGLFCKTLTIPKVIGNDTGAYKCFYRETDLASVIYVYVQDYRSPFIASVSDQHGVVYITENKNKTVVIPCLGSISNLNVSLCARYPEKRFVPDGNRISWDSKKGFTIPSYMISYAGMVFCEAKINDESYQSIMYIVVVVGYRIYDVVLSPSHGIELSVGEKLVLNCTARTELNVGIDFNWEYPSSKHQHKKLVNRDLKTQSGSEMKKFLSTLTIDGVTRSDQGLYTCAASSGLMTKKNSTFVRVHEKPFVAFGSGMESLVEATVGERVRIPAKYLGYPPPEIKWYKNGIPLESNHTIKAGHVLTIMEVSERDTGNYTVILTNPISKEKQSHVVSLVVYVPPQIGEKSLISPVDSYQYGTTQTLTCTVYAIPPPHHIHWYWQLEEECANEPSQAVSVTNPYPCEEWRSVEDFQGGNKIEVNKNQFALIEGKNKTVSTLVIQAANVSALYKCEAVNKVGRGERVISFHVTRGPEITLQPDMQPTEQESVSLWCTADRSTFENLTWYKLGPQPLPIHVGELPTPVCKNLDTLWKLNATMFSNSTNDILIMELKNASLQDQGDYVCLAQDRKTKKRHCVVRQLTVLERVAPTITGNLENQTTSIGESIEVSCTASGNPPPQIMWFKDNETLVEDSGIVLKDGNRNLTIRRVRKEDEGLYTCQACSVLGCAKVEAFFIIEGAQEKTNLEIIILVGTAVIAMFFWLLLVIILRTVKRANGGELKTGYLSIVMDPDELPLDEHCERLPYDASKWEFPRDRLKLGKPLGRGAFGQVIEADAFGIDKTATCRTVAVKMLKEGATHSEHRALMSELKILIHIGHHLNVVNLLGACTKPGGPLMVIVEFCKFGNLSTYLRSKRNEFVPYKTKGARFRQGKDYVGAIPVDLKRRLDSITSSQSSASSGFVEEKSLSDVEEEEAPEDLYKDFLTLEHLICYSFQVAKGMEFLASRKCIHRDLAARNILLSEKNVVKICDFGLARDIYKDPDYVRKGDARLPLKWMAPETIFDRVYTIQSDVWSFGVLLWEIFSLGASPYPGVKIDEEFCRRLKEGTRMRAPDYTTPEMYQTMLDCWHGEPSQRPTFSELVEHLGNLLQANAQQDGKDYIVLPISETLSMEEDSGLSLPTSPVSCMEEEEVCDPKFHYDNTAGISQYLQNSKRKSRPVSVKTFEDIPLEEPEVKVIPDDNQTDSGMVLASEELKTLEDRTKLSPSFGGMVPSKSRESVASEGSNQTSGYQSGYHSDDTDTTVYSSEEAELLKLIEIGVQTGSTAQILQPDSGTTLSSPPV
Sequence of Human KDR (residues 790-1356) (P35968 790-1356): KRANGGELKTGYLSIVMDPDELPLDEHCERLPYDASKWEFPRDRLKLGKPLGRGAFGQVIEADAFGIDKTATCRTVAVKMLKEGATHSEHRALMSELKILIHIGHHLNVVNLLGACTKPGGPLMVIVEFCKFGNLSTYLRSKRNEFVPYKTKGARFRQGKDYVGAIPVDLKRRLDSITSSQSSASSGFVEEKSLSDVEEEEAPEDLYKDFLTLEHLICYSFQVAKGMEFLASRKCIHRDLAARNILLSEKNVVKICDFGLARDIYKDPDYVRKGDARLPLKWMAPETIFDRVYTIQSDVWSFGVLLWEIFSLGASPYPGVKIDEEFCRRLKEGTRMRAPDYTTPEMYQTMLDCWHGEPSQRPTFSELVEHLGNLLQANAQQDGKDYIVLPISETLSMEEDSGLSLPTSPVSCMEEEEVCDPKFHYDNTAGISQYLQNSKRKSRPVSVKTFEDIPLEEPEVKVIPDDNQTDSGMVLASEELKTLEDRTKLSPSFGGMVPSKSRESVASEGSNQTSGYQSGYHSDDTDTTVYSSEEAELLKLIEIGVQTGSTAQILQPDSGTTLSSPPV

As a reminder, the IC50 is the midpoint of a concentration-inhibition curve. With `COCCOc1nc2c(Oc3ccc(NC(=O)c4cn(C)c(C)c(-c5ccc(F)cc5C)c4=O)cc3F)ccnc2cc1OC` [Compound 200, N-[3-Fluoro-4-[[7-methoxy-6-(2-methoxyethoxy)-1,5-naphthyridin-4-yl]oxy]phenyl]-5-(4-fluoro-2-methylphenyl)-1,6-dimethyl-4-oxopyridine-3-carboxamide], the concentration for half-maximal inhibition (IC50) was more than 300 nM in experiment [1], less than 100 nM in experiment [2], less than 100 nM in experiment [3] and less than 100 nM in experiment [4].

`COCCOc1nc2c(Oc3ccc(NC(=O)c4c(COC)nc(C)c(-c5ccc(F)cc5C)c4O)cc3F)ccnc2cc1OC` [Compound 201, N-[3-Fluoro-4-[[7-methoxy-6-(2-methoxyethoxy)-1,5-naphthyridin-4-yl]oxy]phenyl]-5-(4-fluoro-2-methylphenyl)-4-hydroxy-2-(methoxymethyl)-6-methylpyridine-3-carboxamide]: the IC50 is 100 to 300 nM in experiment [1], less than 100 nM in experiment [2], less than 100 nM in experiment [3] and less than 100 nM in experiment [4].

`CCc1nc(C)c(-c2ccc(F)cc2C)c(O)c1C(=O)Nc1ccc(Oc2ccnc3cc(OC)c(OC)nc23)c(F)c1` [Compound 202, N-[4-[(6,7-Dimethoxy-1,5-naphthyridin-4-yl)oxy]-3-fluorophenyl]-2-ethyl-5-(4-fluoro-2-methylphenyl)-4-hydroxy-6-methylpyridine-3-carboxamide]: the IC50 in experiment [1] was 100 to 300 nM; in experiment [2], less than 100 nM; in experiment [3], less than 100 nM; in experiment [4], 100 to 300 nM.

Regarding `CCc1nc(C)c(-c2ccc(F)cc2C)c(O)c1C(=O)Nc1ccc(Oc2ccnc3cc(OC)c(OC)nc23)cc1` [Compound 203, N-[4-[(6,7-Dimethoxy-1,5-naphthyridin-4-yl)oxy]phenyl]-2-ethyl-5-(4-fluoro-2-methylphenyl)-4-hydroxy-6-methylpyridine-3-carboxamide], the IC50 was less than 100 nM in experiment [1], less than 100 nM in experiment [2], less than 100 nM in experiment [3] and 100 to 300 nM in experiment [4].

With `CCc1nc(C)c(-c2ccc(F)cc2C)c(O)c1C(=O)Nc1ccc(Oc2ccnc3cc(OC)cnc23)c(F)c1` [Compound 204, 2-Ethyl-N-[3-fluoro-4-[(7-methoxy-1,5-naphthyridin-4-yl)oxy]phenyl]-5-(4-fluoro-2-methylphenyl)-4-hydroxy-6-methylpyridine-3-carboxamide], the IC50 in experiment [1] is 100 to 300 nM; in experiment [2] it was less than 100 nM; in experiment [3], less than 100 nM; in experiment [4], 100 to 300 nM.

In the case of `CCc1nc(C)c(-c2ccc(F)cc2C)c(O)c1C(=O)Nc1ccc(Oc2ccnc3cc(OC)cnc23)cc1` [Compound 205, 2-Ethyl-5-(4-fluoro-2-methylphenyl)-4-hydroxy-N-[4-[(7-methoxy-1,5-naphthyridin-4-yl)oxy]phenyl]-6-methylpyridine-3-carboxamide], the IC50 is more than 300 nM in experiment [1], less than 100 nM in experiment [2], less than 100 nM in experiment [3] and less than 100 nM in experiment [4].

Consider `CCc1nc(C)c(-c2ccc(F)cc2C)c(O)c1C(=O)Nc1ccc(Oc2ccnc3ccc(OC)nc23)c(F)c1` [Compound 206, 2-Ethyl-N-[3-fluoro-4-[(6-methoxy-1,5-naphthyridin-4-yl)oxy]phenyl]-5-(4-fluoro-2-methylphenyl)-4-hydroxy-6-methylpyridine-3-carboxamide], for which the IC50 in experiment [1] is more than 300 nM; in experiment [2], less than 100 nM; in experiment [3], less than 100 nM; in experiment [4], 100 to 300 nM.

As to `COc1cnc2c(Oc3ccc(NC(=O)c4ccc(C)n(-c5ccc(F)cc5)c4=O)cc3)ccnc2c1` [Compound 216, 1-(4-Fluorophenyl)-N-[4-[(7-methoxy-1,5-naphthyridin-4-yl)oxy]phenyl]-6-methyl-2-oxopyridine-3-carboxamide], the IC50 in experiment [1], in experiment [2], in experiment [3] and in experiment [4] was less than 100 nM throughout.

Take `COc1cnc2c(Oc3ccc(NC(=O)c4cnc(CO)c(-c5ccc(F)cc5)c4O)cc3F)ccnc2c1` [Compound 217, N-[3-Fluoro-4-[(7-methoxy-1,5-naphthyridin-4-yl)oxy]phenyl]-5-(4-fluorophenyl)-4-hydroxy-6-(hydroxymethyl)pyridine-3-carboxamide]: the IC50 in experiment [1] was 100 to 300 nM; in experiment [2] it was less than 100 nM; in experiment [3], less than 100 nM; in experiment [4] it was less than 100 nM.

Turning to `COc1cnc2c(Oc3ccc(NC(=O)c4cnc(CO)c(-c5ccc(F)cc5)c4O)cc3)ccnc2c1` [Compound 218, 5-(4-Fluorophenyl)-4-hydroxy-6-(hydroxymethyl)-N-[4-[(7-methoxy-1,5-naphthyridin-4-yl)oxy]phenyl]pyridine-3-carboxamide], the IC50 was 100 to 300 nM in experiment [1], less than 100 nM in experiment [2], less than 100 nM in experiment [3] and less than 100 nM in experiment [4].

Consider `COc1cc2nccc(Oc3ccc(NC(=O)c4ccc(C)n(-c5ccc(F)cc5C)c4=O)cc3F)c2nc1OC` [Compound 219, N-[4-[(6,7-Dimethoxy-1,5-naphthyridin-4-yl)oxy]-3-fluorophenyl]-1-(4-fluoro-2-methylphenyl)-6-methyl-2-oxopyridine-3-carboxamide], for which the IC50 in experiment [1], in experiment [2], in experiment [3] and in experiment [4] was less than 100 nM in each case.

Regarding `COc1cnc2c(Oc3ccc(NC(=O)c4ccc(C)n(-c5ccc(F)cc5C)c4=O)cc3F)ccnc2c1` [Compound 220, N-[3-Fluoro-4-[(7-methoxy-1,5-naphthyridin-4-yl)oxy]phenyl]-1-(4-fluoro-2-methylphenyl)-6-methyl-2-oxopyridine-3-carboxamide], the 50% inhibitory concentration (IC50) in experiment [1], in experiment [2], in experiment [3] and in experiment [4] was less than 100 nM in each case.

In the case of `COc1cc2nccc(Oc3ccc(NC(=O)c4cn(C)c(CO)c(-c5ccc(F)cc5)c4=O)cc3)c2nc1OC` [Compound 221, N-[4-[(6,7-Dimethoxy-1,5-naphthyridin-4-yl)oxy]phenyl]-5-(4-fluorophenyl)-6-(hydroxymethyl)-1-methyl-4-oxopyridine-3-carboxamide], the IC50 in experiment [1] is 100 to 300 nM; in experiment [2], 100 to 300 nM; in experiment [3], less than 100 nM; in experiment [4] it was less than 100 nM.

Take `COc1cnc2c(Oc3ccc(NC(=O)c4cn(C)c(CO)c(-c5ccc(F)cc5)c4=O)cc3F)ccnc2c1` [Compound 222, N-[3-Fluoro-4-[(7-methoxy-1,5-naphthyridin-4-yl)oxy]phenyl]-5-(4-fluorophenyl)-6-(hydroxymethyl)-1-methyl-4-oxopyridine-3-carboxamide]: the IC50 in experiment [1] is more than 300 nM; in experiment [2], more than 300 nM; in experiment [3], less than 100 nM; in experiment [4], less than 100 nM.

Turning to `COc1cnc2c(Oc3ccc(NC(=O)c4cn(C)c(CO)c(-c5ccc(F)cc5)c4=O)cc3)ccnc2c1` [Compound 223, 5-(4-Fluorophenyl)-6-(hydroxymethyl)-N-[4-[(7-methoxy-1,5-naphthyridin-4-yl)oxy]phenyl]-1-methyl-4-oxopyridine-3-carboxamide], the IC50 in experiment [1] was more than 300 nM; in experiment [2], more than 300 nM; in experiment [3], less than 100 nM; in experiment [4] it was less than 100 nM.

On to `COc1ccc2nccc(Oc3ccc(NC(=O)c4cn(C)c(CO)c(-c5ccc(F)cc5)c4=O)cc3F)c2n1` [Compound 224, N-[3-Fluoro-4-[(6-methoxy-1,5-naphthyridin-4-yl)oxy]phenyl]-5-(4-fluorophenyl)-6-(hydroxymethyl)-1-methyl-4-oxopyridine-3-carboxamide], for which the IC50 in experiment [1] was more than 300 nM; in experiment [2], more than 300 nM; in experiment [3], less than 100 nM; in experiment [4], less than 100 nM.

For the molecule `COc1cc2nccc(Oc3ccc(NC(=O)c4ccc(C)n(-c5ccc(F)cc5C)c4=O)cc3)c2nc1OC` [Compound 225, N-[4-[(6,7-Dimethoxy-1,5-naphthyridin-4-yl)oxy]phenyl]-1-(4-fluoro-2-methylphenyl)-6-methyl-2-oxopyridine-3-carboxamide], the IC50 in experiment [1], in experiment [2], in experiment [3] and in experiment [4] was less than 100 nM each time.

As to `COc1cnc2c(Oc3ccc(NC(=O)c4ccc(C)n(-c5ccc(F)cc5C)c4=O)cc3)ccnc2c1` [Compound 226, 1-(4-Fluoro-2-methylphenyl)-N-[4-[(7-methoxy-1,5-naphthyridin-4-yl)oxy]phenyl]-6-methyl-2-oxopyridine-3-carboxamide], the IC50 in experiment [1] was 100 to 300 nM; in experiment [2] it was less than 100 nM; in experiment [3], less than 100 nM; in experiment [4], less than 100 nM.
